Results reported in patent US12503485B2, “Human aminosterol ENT-03 compounds, related compositions comprising the same, and methods of using the same” (Enterin, Inc., priority 2019, dated 2025).

Experiments:
PP1B = target: T1, PP1B (Homo sapiens, UniProt P62140); test: Phosphatase assay PP1B (DiFMUP fluorescence); type: biochemical; settings: for IC50: Table 2B, read-out: Compound IC50 (M) PP1B
T1 construct: purchased Recation Biology Inc

PP1A = target: T2, PP1A (Homo sapiens, UniProt P62136); test: Phosphatase assay PP1A (DiFMUP fluorescence); type: biochemical; settings: for IC50: Table 2B, read-out: Compound IC50 (M) PP1A
T2 construct: purchased Recation Biology Inc
T2 sequence (P62136 whole entry): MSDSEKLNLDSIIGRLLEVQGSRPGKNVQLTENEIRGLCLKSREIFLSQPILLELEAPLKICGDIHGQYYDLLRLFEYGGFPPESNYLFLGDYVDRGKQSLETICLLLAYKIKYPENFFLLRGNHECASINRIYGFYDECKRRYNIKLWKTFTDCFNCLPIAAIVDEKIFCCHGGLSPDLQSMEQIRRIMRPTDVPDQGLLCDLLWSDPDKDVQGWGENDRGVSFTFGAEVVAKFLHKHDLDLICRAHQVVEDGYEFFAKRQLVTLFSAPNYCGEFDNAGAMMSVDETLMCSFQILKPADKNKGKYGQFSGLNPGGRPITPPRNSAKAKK

PTPN6/SHP1 = target: T3, PTPN6/SHP1 (Homo sapiens, UniProt P29350); test: Phosphatase assay PTPN6/SHP1; type: biochemical; settings: for IC50: Table 2B, read-out: Compound IC50 (M) PTPN6/SHP1
T3 construct: purchased Recation Biology Inc
T3 sequence (P29350 whole entry): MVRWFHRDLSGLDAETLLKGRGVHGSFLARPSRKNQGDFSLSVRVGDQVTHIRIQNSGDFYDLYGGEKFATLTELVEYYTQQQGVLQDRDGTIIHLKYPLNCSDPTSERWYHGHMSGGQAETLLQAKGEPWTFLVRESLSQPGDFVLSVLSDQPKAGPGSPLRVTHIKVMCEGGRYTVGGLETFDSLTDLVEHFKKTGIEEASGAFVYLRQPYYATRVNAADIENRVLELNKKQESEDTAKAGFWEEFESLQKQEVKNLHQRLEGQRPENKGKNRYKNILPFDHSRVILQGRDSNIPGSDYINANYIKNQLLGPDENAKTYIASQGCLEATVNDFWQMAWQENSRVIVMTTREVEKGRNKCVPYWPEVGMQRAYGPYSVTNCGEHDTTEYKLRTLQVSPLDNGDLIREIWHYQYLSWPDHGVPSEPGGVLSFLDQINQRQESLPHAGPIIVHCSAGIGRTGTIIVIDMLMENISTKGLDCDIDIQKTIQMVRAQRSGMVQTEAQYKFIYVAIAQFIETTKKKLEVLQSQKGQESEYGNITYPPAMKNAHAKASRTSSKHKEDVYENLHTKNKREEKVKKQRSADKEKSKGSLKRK

PTPRC/CD45 = target: T4, PTPRC/CD45 (Homo sapiens, UniProt P08575); test: Phosphatase assay PTPRC/CD45; type: biochemical
T4 construct: purchased Recation Biology Inc
T4 sequence (P08575 26-1306): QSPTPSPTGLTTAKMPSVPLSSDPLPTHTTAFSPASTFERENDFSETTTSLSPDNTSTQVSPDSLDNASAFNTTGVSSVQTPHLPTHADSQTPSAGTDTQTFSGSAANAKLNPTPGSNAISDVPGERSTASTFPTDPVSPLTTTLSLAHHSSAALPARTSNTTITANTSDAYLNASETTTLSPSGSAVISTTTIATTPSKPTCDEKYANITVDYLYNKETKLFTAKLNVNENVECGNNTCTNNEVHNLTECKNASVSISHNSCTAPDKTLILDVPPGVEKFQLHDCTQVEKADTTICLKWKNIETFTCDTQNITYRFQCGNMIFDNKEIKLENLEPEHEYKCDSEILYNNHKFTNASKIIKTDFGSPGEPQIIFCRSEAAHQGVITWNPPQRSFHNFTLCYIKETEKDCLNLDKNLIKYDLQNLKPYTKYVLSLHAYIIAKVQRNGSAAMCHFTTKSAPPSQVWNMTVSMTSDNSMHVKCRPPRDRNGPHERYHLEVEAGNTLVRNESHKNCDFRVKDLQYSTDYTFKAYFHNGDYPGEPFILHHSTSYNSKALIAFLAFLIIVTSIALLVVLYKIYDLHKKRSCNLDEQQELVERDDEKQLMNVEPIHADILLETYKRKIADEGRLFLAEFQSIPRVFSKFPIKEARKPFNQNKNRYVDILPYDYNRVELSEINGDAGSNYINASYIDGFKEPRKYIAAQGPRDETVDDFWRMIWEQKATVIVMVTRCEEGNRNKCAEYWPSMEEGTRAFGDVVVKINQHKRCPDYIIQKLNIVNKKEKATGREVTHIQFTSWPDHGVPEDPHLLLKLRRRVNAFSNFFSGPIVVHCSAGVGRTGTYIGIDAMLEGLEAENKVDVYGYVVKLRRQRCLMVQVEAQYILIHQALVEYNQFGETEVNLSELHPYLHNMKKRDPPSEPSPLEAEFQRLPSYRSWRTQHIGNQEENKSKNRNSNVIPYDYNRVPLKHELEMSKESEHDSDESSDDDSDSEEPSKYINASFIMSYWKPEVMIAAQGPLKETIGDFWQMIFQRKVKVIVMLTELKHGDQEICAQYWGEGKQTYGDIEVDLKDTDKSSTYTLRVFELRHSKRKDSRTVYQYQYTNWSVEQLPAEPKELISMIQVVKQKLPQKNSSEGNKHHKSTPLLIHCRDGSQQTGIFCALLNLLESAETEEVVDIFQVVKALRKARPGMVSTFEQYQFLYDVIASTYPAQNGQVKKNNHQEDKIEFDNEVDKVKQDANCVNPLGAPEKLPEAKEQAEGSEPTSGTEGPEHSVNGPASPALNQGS

PTPN2/TC-PTP = target: T5, PTPN2/TC-PTP (Homo sapiens, UniProt P17706); test: Phosphatase assay PTPN2/TC-PTP; type: biochemical; settings: for IC50: Table 2C, read-out: Compound IC50 (M) PTPN2/TC-PTP
T5 construct: purchased Recation Biology Inc
T5 sequence (P17706 1-415): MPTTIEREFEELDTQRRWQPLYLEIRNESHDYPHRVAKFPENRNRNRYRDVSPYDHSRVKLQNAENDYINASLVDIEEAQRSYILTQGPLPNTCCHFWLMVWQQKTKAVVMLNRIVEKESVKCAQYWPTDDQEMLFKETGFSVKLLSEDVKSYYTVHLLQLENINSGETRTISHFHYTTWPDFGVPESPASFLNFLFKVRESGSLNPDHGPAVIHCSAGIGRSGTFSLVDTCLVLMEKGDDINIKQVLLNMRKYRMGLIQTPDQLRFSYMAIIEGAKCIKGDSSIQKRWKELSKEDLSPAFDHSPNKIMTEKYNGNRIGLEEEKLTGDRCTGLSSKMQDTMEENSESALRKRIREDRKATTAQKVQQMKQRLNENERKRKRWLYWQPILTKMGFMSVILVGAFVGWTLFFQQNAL

PTPN12/PTP-PEST = target: T6, PTPN12/PTP-PEST (Homo sapiens, UniProt Q05209); test: Phosphatase assay PTPN12/PTP-PEST; type: biochemical
T6 construct: purchased Recation Biology Inc
T6 sequence (Q05209 whole entry): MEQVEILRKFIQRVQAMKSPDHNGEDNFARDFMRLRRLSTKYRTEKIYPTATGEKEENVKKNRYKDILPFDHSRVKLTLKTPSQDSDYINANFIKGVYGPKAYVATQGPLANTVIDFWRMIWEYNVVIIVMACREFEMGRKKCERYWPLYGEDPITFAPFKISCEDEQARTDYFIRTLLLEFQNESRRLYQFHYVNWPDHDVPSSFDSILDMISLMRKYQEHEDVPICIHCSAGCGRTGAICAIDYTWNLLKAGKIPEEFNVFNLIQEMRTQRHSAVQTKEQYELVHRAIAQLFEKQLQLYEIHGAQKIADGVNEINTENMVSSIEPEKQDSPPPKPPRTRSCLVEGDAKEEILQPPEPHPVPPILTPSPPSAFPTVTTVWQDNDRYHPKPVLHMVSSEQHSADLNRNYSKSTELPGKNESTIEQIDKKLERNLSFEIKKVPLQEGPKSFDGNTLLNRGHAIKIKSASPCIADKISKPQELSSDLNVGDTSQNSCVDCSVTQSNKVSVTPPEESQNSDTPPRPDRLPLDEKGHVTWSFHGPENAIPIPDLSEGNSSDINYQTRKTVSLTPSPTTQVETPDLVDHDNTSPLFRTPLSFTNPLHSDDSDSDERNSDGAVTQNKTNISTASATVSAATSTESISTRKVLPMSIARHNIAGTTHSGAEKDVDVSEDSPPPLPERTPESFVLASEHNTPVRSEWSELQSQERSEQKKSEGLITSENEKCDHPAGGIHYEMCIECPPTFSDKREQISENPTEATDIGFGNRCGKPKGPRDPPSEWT

[1] = Weight loss in male Swiss Webster mice, i.p. dosing; type: in vivo; settings: male Swiss Webster mice about 50 g, i.p. 10 mg/kg every other day; for loss of starting body weight: by 27 days
Text: Food was provided ad lib.

[2] = Weight gain in growing male mice; type: in vivo; settings: growing male mice about 25 g, similar dosing regimen
Description: In a second experiment, growing male mice, about 25 grams, were administered either compound following a similar dosing regimen. As in the previous experiment, both compounds affected weight gain.

PTPN11/SHP2-FL (E76K) = target: T7, PTPN11/SHP2-FL (E76K) (Homo sapiens, UniProt Q06124, E76K); test: Phosphatase assay PTPN11/SHP2-FL (E76K)
T7 sequence (Q06124 2-597 isoform Q06124-1 E76K): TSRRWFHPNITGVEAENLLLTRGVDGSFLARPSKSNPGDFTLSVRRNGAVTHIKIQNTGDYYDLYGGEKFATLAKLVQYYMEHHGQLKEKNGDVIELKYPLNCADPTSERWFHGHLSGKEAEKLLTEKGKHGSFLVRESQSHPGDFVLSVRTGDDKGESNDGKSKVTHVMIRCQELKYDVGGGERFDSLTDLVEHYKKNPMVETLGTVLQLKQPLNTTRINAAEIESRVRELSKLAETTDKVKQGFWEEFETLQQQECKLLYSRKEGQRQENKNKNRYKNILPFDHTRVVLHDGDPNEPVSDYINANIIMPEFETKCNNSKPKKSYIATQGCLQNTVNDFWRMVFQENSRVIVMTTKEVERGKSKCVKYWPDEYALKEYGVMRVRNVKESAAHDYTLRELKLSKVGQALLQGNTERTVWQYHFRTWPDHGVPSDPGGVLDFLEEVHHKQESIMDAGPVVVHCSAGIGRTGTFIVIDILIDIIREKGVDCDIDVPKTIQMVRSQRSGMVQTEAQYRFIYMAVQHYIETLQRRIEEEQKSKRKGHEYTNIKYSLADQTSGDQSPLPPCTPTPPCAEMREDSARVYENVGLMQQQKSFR

T1 sequence (P62140 whole entry): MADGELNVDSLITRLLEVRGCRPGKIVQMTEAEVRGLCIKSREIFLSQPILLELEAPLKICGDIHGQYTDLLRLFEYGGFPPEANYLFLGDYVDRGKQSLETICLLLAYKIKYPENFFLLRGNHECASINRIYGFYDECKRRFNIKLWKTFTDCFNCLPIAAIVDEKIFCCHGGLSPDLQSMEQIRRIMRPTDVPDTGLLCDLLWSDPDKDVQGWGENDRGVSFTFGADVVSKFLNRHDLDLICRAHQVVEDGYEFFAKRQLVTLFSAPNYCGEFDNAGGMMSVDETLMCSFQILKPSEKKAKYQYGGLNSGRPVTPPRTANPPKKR

| SMILES | IC50 (PP1B) | IC50 (PP1A) | activity at PTPN6/SHP1, in words (PTPN6/SHP1) | IC50 (PTPN6/SHP1) | activity on PTPRC/CD45, in words (PTPRC/CD45) | IC50 (PTPN2/TC-PTP) | activity on PTPN12/PTP-PEST, in words (PTPN12/PTP-PEST) | effect on weight, in words [1] | nadir of weight [1] | recovery to the starting weight [1] | loss of starting body weight [1] | effect on growth, in words [2] | inhibition of PTPN11 (E76K), in words (PTPN11/SHP2-FL (E76K)) | activity at PP1B, in words (PP1B) | activity at PP1A, in words (PP1A) | IC50 (PTPRC/CD45; Table 2B, read-out: Compound IC50 (M) PTPRC/CD45) | activity at PTPN2, in words (PTPN2/TC-PTP) |
| --- | --- | --- | --- | --- | --- | --- | --- | --- | --- | --- | --- | --- | --- | --- | --- | --- | --- |
| CC(C)[C@@H](CC[C@@H](C)[C@H]1CC[C@H]2[C@@H]3[C@H](O)C[C@H]4C[C@@H](NCCCNCCCCNCCCN)CC[C@]4(C)[C@H]3CC[C@]12C)OS(=O)(=O)O (single isomer, unassigned) [ENT-02, trodusquemine] | > 0.0001 M | > 0.0001 M | Neither compound inhibits | > 0.0001 M | target | > 0.0001 M | target | more severe decline | ~16 days | ~45 days | about 10% | suppressed growth | potently inhibit | – | – | – | – |
| CC(CCCC(C)C1CCC2C3C(O)CC4CC(NCCCNCCCCNCCCN)CCC4(C)C3CCC12C)C(=O)O (single isomer, unassigned; ent-03) [ENT-03, 3-β-Spermino-7α-hydroxy-5α-cholestanoic acid] | > 0.0001 M | > 0.0001 M | – | > 0.0001 M | target | > 0.0001 M | – | weight loss | ~16 days | ~45 days | about 10% | continued normal growth | potently inhibit | inactive | inactive | 5.71e-07 M | inactive |
